According to patent US20250241914A1, “BIFUNCTIONAL PHARMACEUTICAL COMPOUNDS” (DE MONTFORT UNIVERSITY, priority 2024, published 2025):

What was measured:
[1] = test system: M. tuberculosis rifampicin-resistant strain RpoBS531L; assay type: cell-based, Mycobacterium tuberculosis
[2] = test system: M. tuberculosis rifampicin resistant strain RpoBS522L (H37Rv); assay type: cell-based, Mycobacterium tuberculosis

CO[C@H]1/C=C/O[C@@]2(C)Oc3c(C)c(O)c4c(O)c(c(CNCCCn5cc(CCn6cc(F)c(=O)[nH]c6=O)nn5)c(O)c4c3C2=O)NC(=O)/C(C)=C\C=C\[C@H](C)[C@H](C)[C@@H](C)[C@@H](O)[C@@H](C)[C@H](OC(C)=O)[C@@H]1C [Compound 3A]
Mycobacterium tuberculosis strain MIC90, RpoBS531L [1]: 0.22 µM | Mycobacterium tuberculosis strain MIC90, RpoBS522L H37Rv [2]: 0.31 µM

CO[C@H]1/C=C/O[C@@]2(C)Oc3c(C)c(O)c4c(O)c(c(CNCCOCCOCCOCn5cc(CCn6cc(F)c(=O)[nH]c6=O)nn5)c(O)c4c3C2=O)NC(=O)/C(C)=C\C=C\[C@H](C)[C@H](C)[C@@H](C)[C@@H](O)[C@@H](C)[C@H](OC(C)=O)[C@@H]1C [Compound 3B]
Mycobacterium tuberculosis strain MIC90, RpoBS531L [1]: 0.23 µM | Mycobacterium tuberculosis strain MIC90, RpoBS522L H37Rv [2]: 0.32 µM

CO[C@H]1/C=C/O[C@@]2(C)Oc3c(C)c(O)c4c(O)c(c(CNCCOCCOCCOCn5cc(CCCn6cc(F)c(=O)[nH]c6=O)nn5)c(O)c4c3C2=O)NC(=O)/C(C)=C\C=C\[C@H](C)[C@H](C)[C@@H](C)[C@@H](O)[C@@H](C)[C@H](OC(C)=O)[C@@H]1C [Compound 3C]
Mycobacterium tuberculosis strain MIC90, RpoBS531L [1]: 0.21 µM | Mycobacterium tuberculosis strain MIC90, RpoBS522L H37Rv [2]: 0.47 µM

NNC(=O)c1ccncc1 [Isoniazid, reference compound]
Mycobacterium tuberculosis strain MIC90, RpoBS531L [1]: 0.55 µM | Mycobacterium tuberculosis strain MIC90, RpoBS522L H37Rv [2]: 0.29 µM
